Data as given in patent US20250213636A1, “A […] ANAESTHETIC FORMULATION AND A METHOD OF PREPARATION” (priority 2022, published 2025).
Marks after values point to notes of the source that are not given here.

Legend:
Wistar rats = test: In vivo analgesia duration test using electrical stimulation (vocal response); parameters: species or system Wistar albino rats
Description: In vivo analgesia duration test was conducted using electrical stimulation testing, which was used as a means of determining analgesia in animals and humans (Grant et al., 2000). Testing for analgesia was done by a vocal response to electrical stimulation (beginning at 1 mA and increasing to a maximum of 8 mA) at the skin directly overlying the abdomen at the site of injection using a current generator. The abdominal hair of the experimental rats was shaved off, and they were screened prior to injection to determine their vocalization threshold, the current required to produce a vocalization response.
Animals will be treated in the following manner.
Polyherbal anaesthetic formulation, standard drug and 0.9% normal saline samples were injected subcutaneously into the abdomen of the experimental rats, followed by determination of analgesia at the fixed time intervals (5, 10, 20, 30, 40, 50, 60, and 70 min).

[1] = tested on: rats (tail, noxious heat stimulus); test: Tail-flick latency (TFL) test of local anaesthetic effect; type: in vivo
Description: Local anaesthetic effects of LA-containing formulations were evaluated by tail-flick latency (TFL) test using a tail-flick measuring device (Ugo Basile, Varese, italy) (Puglia et al., 2011; Ouchi et al., 2013; Caffarel-Salvador et al., 2015). A noxious heat stimulus was applied via a focused, radiant heat light source to the dorsal surface of the tail. Tail-flick test started 5 min after the local application of different preparations, and the test was conducted every 10 min for 120 min. TFL was converted to represent the maximum possible effect (MPE) according to the following equation: […]
The baseline TFL was calculated as the mean of three different measurements taken at 10-min intervals. Baseline latencies were typically ranged from 2.5 to 3.0 s. A maximum cut-off latency of 10s was set to avoid tissue damage in analgesic animals. Results are expressed as mean±standard of eight rats per group.

CCN(CC)CC(=O)Nc1c(C)cccc1C [lignocaine 2% solution, lignocaine]
Median duration of analgesia (Wistar rats; 0.05 mL subcutaneous injection into abdomen, rats): 35 min
Percentage (%) of animals with analgesia (Wistar rats; 5 minutes after 0.05 mL s.c.): 100.00** %
Percentage (%) of animals with analgesia (Wistar rats; 10 minutes after 0.05 mL s.c.): 100.00** %
Percentage (%) of animals with analgesia (Wistar rats; 20 minutes after 0.05 mL s.c.): 100.00** %
Percentage (%) of animals with analgesia (Wistar rats; 30 minutes after 0.05 mL s.c.): 66.67** %
Percentage (%) of animals with analgesia (Wistar rats; 40 minutes after 0.05 mL s.c.): 33.33** %
Percentage (%) of animals with analgesia (Wistar rats; 50 minutes after 0.05 mL s.c.): 33.33** %
Percentage (%) of animals with analgesia (Wistar rats; 60 minutes after 0.05 mL s.c.): 16.67** %
Percentage (%) of animals with analgesia (Wistar rats; 70 minutes after 0.05 mL s.c.): 16.67** %
Duration of anaesthetic effect/activity after application [1]: up to 30 min
